# According to patent US12269821B2, “Discovery of novel first in class nature-inspired compounds targeting the mitochondrial function and pharmaceutical composition thereof” (University of Sharjah, priority 2018, dated 2025):
# Entries after “also recorded” stand apart in the source; their conditions may differ.
# Experiments:
# CD3+ T lymphocytes = assay: Activation induced proliferation of lymphocytes (PMA/Ionomycin), Cytopainter flow cytometry, T cells; assay type: cell-based, C57BL/6J mice; conditions: stimulation with PMA/Ionomycin; for division index of T-cells: FIG. 2a; for expansion index of T-cells: FIG. 2b
# Experimental: (§1) Spleen and lymph nodes were collected from C57BL/6J mice and stored in RPMI medium on ice until further processing. Further procedures were performed using a laminar flow hood. Single cell suspensions were created by shearing the organs between two microscopy slides. Cell suspensions were passed through a 70 μm cell strainer to exclude remaining tissue chunks. Cells were washed in PBS and centrifuged at 300 g for 5 min at 4° C. During the preparation of splenic single cell suspension, erythrocytes were removed by incubating the cells for 5 min at rt in RBC lysis buffer followed by extensive washing in PBS. Cells were resuspended in RPMI medium and cell count was determined. Lymphocytes were kept on ice until further use.
# (§2) A total 17×10^6 cells were suspended in 15 mL Krebs Ringer buffer (with HEPES, 1 g L^−1 glucose, 1 mM pyruvate), supplemented with 30 μL of Cytopainter blue stock solution (500×) (#ab176726, Abcam) and incubated for 30 min at 37° C. to let the CFSE analog accumulate in the cells. The remaining Cytopainter reagent that was not incorporated into the cells was quenched by addition of 10 mL FCS and incubated for 5 min at rt. Another 25 mL of PBS were added and cells were centrifuged at 300 g for 5 min at rt. The cells were then suspended in 12.75 mL of complete RPMI culture medium. 2×10^5 cells in a volume of 150 μL were added to the wells of 96 well plates. The cytopainter-loaded cells were supplemented with the test substances, or DMSO as a negative control and oligomycin as a positive control.
# (§3) Cytopainter loaded lymphocytes were stimulated with PMA (15 ng mL^−1) and Ionomycin (0.5 μg mL^−1). All cells were incubated for 60 h at 37° C., 5% CO2. Lymphocytes were then washed with 2% FBS in PBS, supplemented with anti-CD16/CD32 antibodies (to block unspecific Fc-receptor binding) and incubated for 10 min at 4° C. Subsequently cells were incubated for 20 min at 4° C. with anti-CD3 antibodies conjugated to FITC (clone: 145-2C11, #11-0031-82, eBioscience) and anti-B220 antibodies conjugated to PerCP-Cy5.5 (clone:RA3-6B2, #45-0452-82, eBioscience) to label T cells and B cells, respectively. Cells were subsequently washed with 2% FBS in PBS analyzed.
# (§4) Cell proliferation was then analyzed by assessing the fluorescence intensity of cytopainter in the cells by flow cytometry. Reduced intensity of cytopainter dye indicates cells that have undergone cell division. Data was analyzed using FlowJo v10.4.2. Proliferation parameters were derived using the FlowJo Proliferation Tool. The Expansion index determines the fold-expansion of the overall culture. The Division index expresses the average number of cell divisions that a cell in the original population has undergone and also includes the cells that have never divided.
# Hepa1-6 cell line [1] = assay: Cytotoxicity (Pierce LDH Cytotoxicity Assay Kit); assay type: cell-based; conditions: Hepa1-6, FIG. 1e
# Experimental: (§5) The tested compounds were dissolved in DMSO at a concentration of 100 mM and further diluted in PBS supplemented with 10% (v/v) DMSO. When necessary dissolution was enhanced by incubation at 50° C. and sonication at maximum output for 10 min. Hepa1.6 cell line (#CRL-1830, ATCC) was cultured in DMEM culture medium containing 1 g L^−1 glucose, 10% fetal bovine serum, 2 mM glutamine, 100 U mL^−1 Penicillin and 100 μg mL^−1 Streptomycin and 30 μM oleic acid. Cells were seeded at a density of 20000 cells per well in 96 well plates and incubated for several hours to allow the cells to attach at 37° C. with 5% CO2. Cells were then supplemented with the test substances at indicated concentrations (0.01-50 μM) and incubated for indicated time periods (24-48 h).
# (§6) For all assays the tested substances were further diluted in 10% DMSO/PBS and added to the cells at the indicated concentrations with a final DMSO concentration of 0.01%. Negative vehicle controls were treated with 0.01% DMSO. Positive control was treated with 10 μM oligomycin or 10 μM FCCP (Carbonyl cyanide-4-(trifluoromethoxy) phenylhydrazone).
# Cytotoxicity was assessed using the Pierce LDH Cytotoxicity Assay Kit (#88953, Thermo Fisher). […] Absorbance was measure at 490 nm and background at 680 nm. […] Cytotoxicity was expressed as the percentage of maximum signal intensity observed in freshly lysed cells.
# Hepa1-6 cell line [2] = assay: Cellular redox potential (AlamarBlue); assay type: cell-based; conditions: Hepa1-6, 24 h, FIG. 1c
# Experimental: as §5, §6
# Cells were treated for 24 h with the test substances or controls ([…] DMSO, 10 μM FCCP and 10 μM oligomycin). […] Fluorescence was measured at ex/em: 550/590 nm. […]
# Hepa1-6 cell line [3] = assay: Mitochondrial membrane potential (ΔΨm), TMRE fluorophore; assay type: cell-based; conditions: FIG. 1b; for reduce ΔΨm: Hepa1-6, exposure 24 h; for Emax at 1 µM: Mus musculus, Hepa1-6, concentration of 1 μM, read-out: decrease of normalized ΔΨm, maximum response
# Experimental: as §5, §6
# Mitochondrial membrane potential (ΔΨm) was assessed using the tetramethylrhodamine (TMRE) fluorophore. The cells were incubated with the test substances for 24 h and then loaded with TMRE at a final concentration of 200 nM for 45 min at 37° C. Positive control wells were treated with 10 μM FCCP 30 min before loading the cells with TMRE. The medium was removed and the cells were washed with PBS and supplemented with fresh culture medium. Fluorescence intensity of TRME was immediately measured (ex/em: 545/580 nm) using a plate reader spectrophotometer. The results were normalized to the fluorescence intensity measured in mock treated negative controls and the positive controls treated with 10 μM FCCP.
# isolated T cells = assay: Activation induced proliferation of isolated T cells, Cytopainter flow cytometry; assay type: cell-based, C57BL/6J mice; conditions: 2f
# Experimental: as §1
# T cell was enriched from the splenocytes by negative selection using magnetic bead separation (Pan T cell isolation kit II, mouse, #130-095-130, Miltenyi) achieving more than 90% purity. The cells were kept in RPMI medium until further use.
# as §2
# Cytopainter loaded T cells were stimulated using two different approaches. Either T cells stimulated by plate bound anti-CD3 antibodies (coated at 1 μg/mL) and soluble anti-CD28 antibodies (at a final concentration of 0.2 μg mL^−1), or in separate replicates by addition of the cytokines IL-2 (50 ng mL^−1) and IL-7 (10 ng mL^−1) to stimulate T cells proliferation and survival.
# as §4
# B220+ B lymphocytes = assay: Activation induced proliferation of lymphocytes (PMA/Ionomycin), Cytopainter flow cytometry, B cells; assay type: cell-based, C57BL/6J mice; conditions: stimulation with PMA/Ionomycin; for division index of B-cells: FIG. 2c; for expansion index of B-cells: FIG. 2d
# Experimental: as §1, §2, §3, §4
# Hepa1-6 cell line [4] = assay: BrdU incorporation/cell proliferation assay; assay type: cell-based; conditions: for suppression of cells proliferation: Hepa1-6, exposure 48 h, FIG. 1d
# Experimental: as §5, §6
# Cells were incubated for a total of 48 h with the tested substances. During the last 12 h the cells were supplemented with 200 μM BrdU (#ab126556, Abcam). After the incubation period cells were washed with PBS. Following that the cells fixed and permeabilized using the reagents of the kit and labeled for 1 h with anti-BrdU antibodies conjugated with peroxidase. After washing the fixed cells 5 times with PBS the wells were incubated with peroxidase substrate TMB. The reaction was stopped after 30 min. The signal intensity was measure at absorbance 450 nm. Results were normalized to controls samples treated with vehicle (0.01% DMSO, negative control) or 10 μM oligomycin.
# Hepa1-6 cell line [5] = assay: Cellular ATP content (CellTiter-Glo Assay); assay type: cell-based; conditions: Hepa1-6, exposure 24 h, FIG. 1a
# Experimental: as §5
# For all assays the tested substances were further diluted in 10% DMSO/PBS and added to the cells at the indicated concentrations with a final DMSO concentration of 0.01%. […]
# Cells were treated for 24 h with the test substances at the indicated concentrations. The cellular ATP content was assessed using the CellTiter-Glo Assay (#G7571, Promega) as per the manufacturer's instructions. Luminescence was detected in a plate reader spectrophotometer. The results were normalized to the luminescence intensity measured in mock treated negative controls and the positive controls treated with 10 μM oligomycin.
# [6] = stimulation with anti-CD3/CD28 antibodies, FIGS. 2e
# [7] = stimulation with cytokines IL-2/IL-7, FIGS. 2e
Structure (SMILES),division index of T-cells (CD3+ T lymphocytes),expansion index of T-cells (CD3+ T lymphocytes),cytotoxic necrosis (Hepa1-6 cell line [1]),effect on redox potential (Hepa1-6 cell line [2]),reduce ΔΨm (Hepa1-6 cell line [3]) [%],Emax at 1 µM (Hepa1-6 cell line [3]) [%],activation-induced proliferation of isolated T-cells (isolated T cells; [6]),activation-induced proliferation of isolated T-cells (isolated T cells; [7]),division index of B-cells (B220+ B lymphocytes),expansion index of B-cells (B220+ B lymphocytes),suppression of cells proliferation (Hepa1-6 cell line [4]),deplete ATP production (Hepa1-6 cell line [5]),"rank in diminishing the proliferation of Hepa1-6 (Hepa1-6 cell line [4]; Hepa1-6, 1d versus 1q)"
"C[C@]12CCC(=O)C[C@H]1N1CCc3c([nH]c4ccccc34)[C@@H]1CO2 [1q, (2aS,6aR,14bR)-2a-Methyl-3,4,6,6a,8,9,14,14b-octahydro-1H-benzo[5′,6′][1,4]oxazino[4′,3′:1,2]pyrido[3,4-k]indol-5(2aH)-one]",non-significant effects,non-significant effects,without noticeable cytotoxic necrosis,increase; also recorded: strongly affected,77,90,did not significantly affect,did not significantly affect,non-significant effects,non-significant effects,potent suppression,≤ 50%,–
"C[C@]12C=CC(=O)C[C@H]1N1CCc3c([nH]c4ccccc34)[C@@H]1CO2 [compound 1d, (2aS,6aR,14bR)-2a-Methyl-6,6a,8,9,14,14b-hexahydro-1H-benzo[5′,6′][1,4]oxazino[4′,3′:1,2]pyrido[3,4-b]indol-5(2 aH)-one]",non-significant effects,non-significant effects,without noticeable cytotoxic necrosis,increase; also recorded: strongly affected,82,82,did not significantly affect,did not significantly affect,non-significant effects,non-significant effects,potent suppression,up to 60%,most potent
